Test results from patent US20230265151A1, “GIP/GLP1 CO-AGONIST COMPOUNDS” (priority 2020, published 2023).
Like-named read-outs stand apart in the source and are kept apart here.

Legend:
Type in all cases: cell-based
[1] = target: T1, hGCGR (Homo sapiens, UniProt P47871); test: Functional cAMP formation (HTRF) in HEK-293 clonal cells expressing hGCGR, 0.1% bovine casein, without or with 1.0% human serum albumin; settings: geometric mean, read-out: hGCGR EC50, nM (SEM, n)
T1 construct: expressed in transfected cells
Summary of the method: (§1)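 Cells were stimulated with peptide for 30 min at 37° C, then intracellular cAMP was measured by competitive HTRF (665/620 nm ratio) and converted to nM using a cAMP standard curve. Relative EC50 and Emax came from four-parameter logistic fits of percent maximal response against peptide concentration.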

[2] = target: T2, hGIPR (Homo sapiens, UniProt P48546); test: Functional cAMP formation (HTRF) in HEK-293 clonal cells expressing hGIPR, 0.1% bovine casein, without or with 1.0% human serum albumin; settings: 37° C.; for Emax: read-out: hGIPR Emax, % ± SEM
T2 construct: expressed in transfected cells
T2 sequence (P48546 22-466): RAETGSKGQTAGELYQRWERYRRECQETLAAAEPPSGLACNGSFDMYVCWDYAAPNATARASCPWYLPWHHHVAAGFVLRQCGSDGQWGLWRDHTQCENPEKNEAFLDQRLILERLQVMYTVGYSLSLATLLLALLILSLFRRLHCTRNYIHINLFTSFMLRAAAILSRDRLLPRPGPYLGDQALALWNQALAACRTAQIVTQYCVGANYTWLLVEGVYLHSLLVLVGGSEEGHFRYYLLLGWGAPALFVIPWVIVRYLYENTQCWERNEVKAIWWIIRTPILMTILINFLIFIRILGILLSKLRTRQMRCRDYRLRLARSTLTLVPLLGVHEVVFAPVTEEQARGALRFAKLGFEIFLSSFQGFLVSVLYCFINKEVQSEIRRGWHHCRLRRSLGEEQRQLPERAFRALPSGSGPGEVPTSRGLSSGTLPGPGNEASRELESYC
Summary of the method: as §1

[3] = target: hGLP-1R (Homo sapiens, UniProt P43220); test: Functional cAMP formation (HTRF) in HEK-293 clonal cells expressing hGLP-1R, 0.1% bovine casein, without or with 1.0% human serum albumin; set-up: expressed in transfected cells; settings: for EC50: geometric mean, read-out: hGLP-1R EC50, nM (SEM, n); for Emax: read-out: hGLP-1R Emax, % ± SEM
Summary of the method: as §1

[4] = 0.1% bovine casein and 1.0% human serum albumin, 37° C.
[5] = cAMP, incubated at 37° C., 0.1% bovine casein (no human serum albumin)
[6] = HEK293, 0.1% bovine casein and 1.0% human serum albumin, percent of maximal response to GIP(1-42)NH2
[7] = HEK293, percent of maximal response to GIP(1-42)NH2, 0.1% bovine casein, arithmetic mean
[8] = HEK293, 0.1% bovine casein and 1.0% human serum albumin, 37° C., percent of maximal response to GLP-1(7-36)NH2
[9] = HEK293, percent of maximal response to GLP-1(7-36)NH2, 37° C., 0.1% bovine casein, arithmetic mean

Chain of hGLP-1R (P43220 24-463): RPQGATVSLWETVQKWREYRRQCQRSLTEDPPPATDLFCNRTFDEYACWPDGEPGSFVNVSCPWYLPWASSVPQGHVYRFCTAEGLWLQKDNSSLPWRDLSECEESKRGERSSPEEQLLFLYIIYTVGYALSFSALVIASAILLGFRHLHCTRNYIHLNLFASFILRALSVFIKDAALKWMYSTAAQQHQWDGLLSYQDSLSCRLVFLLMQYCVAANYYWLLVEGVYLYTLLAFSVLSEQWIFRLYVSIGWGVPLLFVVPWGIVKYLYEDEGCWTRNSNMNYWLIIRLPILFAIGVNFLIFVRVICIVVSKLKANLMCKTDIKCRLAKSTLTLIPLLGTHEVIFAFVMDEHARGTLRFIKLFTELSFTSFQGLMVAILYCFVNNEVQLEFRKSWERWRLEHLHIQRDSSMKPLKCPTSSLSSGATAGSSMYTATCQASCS
T1 sequence (P47871 26-477): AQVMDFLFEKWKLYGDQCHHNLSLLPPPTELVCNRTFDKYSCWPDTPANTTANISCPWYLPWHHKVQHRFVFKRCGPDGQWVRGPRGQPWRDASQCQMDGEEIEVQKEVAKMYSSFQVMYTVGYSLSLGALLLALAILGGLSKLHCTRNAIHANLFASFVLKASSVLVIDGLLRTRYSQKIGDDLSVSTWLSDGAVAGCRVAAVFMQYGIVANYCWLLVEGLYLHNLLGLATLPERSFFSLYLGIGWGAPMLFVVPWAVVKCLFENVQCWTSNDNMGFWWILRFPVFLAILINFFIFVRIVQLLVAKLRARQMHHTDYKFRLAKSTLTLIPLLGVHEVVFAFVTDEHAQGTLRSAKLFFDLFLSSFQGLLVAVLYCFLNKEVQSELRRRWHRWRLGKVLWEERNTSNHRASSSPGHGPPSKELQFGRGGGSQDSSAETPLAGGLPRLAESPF

Structure (SMILES)	EC50 [1, 4]	EC50 [1, 5]	Emax [2, 6]	Emax [2, 7]	EC50 [3, 4]	Emax [3, 8]	Emax [3, 9]	EC50 [3, 5]	EC50 ([2]; 0.1% bovine casein and 1.0% human serum albumin, geometric mean, read-out: hGIPR EC50, nM (SEM, n))
CC[C@H](C)[C@H](NC(=O)[C@H](CC(C)C)NC(=O)[C@](C)(Cc1ccc(O)cc1)NC(=O)[C@@H](CCC(=O)O)NC(=O)[C@@H](NC(=O)[C@H](Cc1ccccc1)NC(=O)[C@H](CCC(=O)O)NC(=O)C(C)(C)NC(=O)[C@H](CCC(N)=O)NC(=O)[C@H](C)NC(=O)[C@H](CCCCNC(=O)COCCOCCNC(=O)COCCOCCNC(=O)CC[C@H](NC(=O)CCCCCCCCCCCCC(=O)O)C(=O)O)NC(=O)[C@H](CCCN)NC(=O)[C@H](CC(=O)O)NC(=O)[C@H](CC(C)C)NC(=O)[C@](C)(CC(C)C)NC(=O)[C@@H](NC(=O)[C@H](CN)NC(=O)[C@H](Cc1ccc(O)cc1)NC(=O)[C@H](CC(=O)O)NC(=O)[C@H](CO)NC(=O)[C@@H](NC(=O)[C@](C)(Cc1ccccc1F)NC(=O)[C@@H](NC(=O)CNC(=O)[C@H](CCC(=O)O)NC(=O)C(C)(C)NC(=O)[C@@H](N)Cc1ccc(O)cc1)[C@@H](C)O)[C@@H](C)O)[C@@H](C)CC)[C@@H](C)CC)C(=O)N[C@@H](CCC(=O)O)C(=O)NCC(=O)NCC(=O)N[C@@H](CCCCNC(=O)COCCOCCNC(=O)COCCOCCNC(=O)CC[C@H](NC(=O)CCCCCCCCCCCCC(=O)O)C(=O)O)C(=O)N[C@@H](CO)C(=O)N[C@@H](CO)C(=O)NCC(=O)N[C@@H](C)C(=O)N1CCC[C@H]1C(=O)N1CCC[C@H]1C(=O)N1CCC[C@H]1C(=O)N[C@@H](CO)C(N)=O [Example 200]	> 9950 nM	> 9950 nM	83.7%	96.3 ± 2.76%	26.6 nM	97.4%	–	–	–
CC[C@H](C)[C@H](NC(=O)[C@H](CC(C)C)NC(=O)[C@](C)(Cc1ccc(O)cc1)NC(=O)[C@@H](CCC(=O)O)NC(=O)[C@@H](NC(=O)[C@H](Cc1ccccc1)NC(=O)[C@H](CCC(=O)O)NC(=O)C(C)(C)NC(=O)[C@H](CCC(N)=O)NC(=O)[C@H](C)NC(=O)[C@H](CCCCNC(=O)COCCOCCNC(=O)COCCOCCNC(=O)CC[C@H](NC(=O)CCCCCCCCCCCCC(=O)O)C(=O)O)NC(=O)[C@H](CCCN)NC(=O)[C@H](CC(=O)O)NC(=O)[C@H](CC(C)C)NC(=O)[C@](C)(CC(C)C)NC(=O)[C@@H](NC(=O)[C@H](CN)NC(=O)[C@@H](NC(=O)[C@H](CC(=O)O)NC(=O)[C@H](CO)NC(=O)[C@@H](NC(=O)[C@](C)(Cc1ccccc1F)NC(=O)[C@@H](NC(=O)CNC(=O)[C@H](CCC(=O)O)NC(=O)C(C)(C)NC(=O)[C@@H](N)Cc1ccc(O)cc1)[C@@H](C)O)[C@@H](C)O)C(C)C)[C@@H](C)CC)[C@@H](C)CC)C(=O)N[C@@H](CCC(=O)O)C(=O)NCC(=O)NCC(=O)N[C@@H](CCCCNC(=O)COCCOCCNC(=O)COCCOCCNC(=O)CC[C@H](NC(=O)CCCCCCCCCCCCC(=O)O)C(=O)O)C(=O)N[C@@H](CO)C(=O)N[C@@H](CO)C(=O)NCC(=O)N[C@@H](C)C(=O)N1CCC[C@H]1C(=O)N1CCC[C@H]1C(=O)N1CCC[C@H]1C(=O)N[C@@H](CO)C(N)=O [Example 201]	> 9950 nM	> 9950 nM	80.5%	92.2 ± 3.26%	25.1 nM	–	105 ± 4.51%	–	–
CC[C@H](C)[C@H](NC(=O)[C@H](CC(C)C)NC(=O)[C@](C)(Cc1ccc(O)cc1)NC(=O)[C@@H](CCC(=O)O)NC(=O)[C@@H](NC(=O)[C@H](Cc1ccccc1)NC(=O)[C@H](CCC(=O)O)NC(=O)C(C)(C)NC(=O)[C@H](CCC(N)=O)NC(=O)[C@H](C)NC(=O)[C@H](CCCCNC(=O)COCCOCCNC(=O)COCCOCCNC(=O)CC[C@H](NC(=O)CCCCCCCCCCCCC(=O)O)C(=O)O)NC(=O)[C@H](CCCN)NC(=O)[C@H](CC(=O)O)NC(=O)[C@H](CC(C)C)NC(=O)[C@](C)(CC(C)C)NC(=O)[C@@H](NC(=O)[C@@H](NC(=O)[C@H](Cc1ccncc1)NC(=O)[C@H](CC(=O)O)NC(=O)[C@H](CO)NC(=O)[C@@H](NC(=O)[C@](C)(Cc1ccccc1F)NC(=O)[C@@H](NC(=O)CNC(=O)[C@H](CCC(=O)O)NC(=O)C(C)(C)NC(=O)[C@@H](N)Cc1ccc(O)cc1)[C@@H](C)O)[C@@H](C)O)C(C)(C)C)[C@@H](C)CC)[C@@H](C)CC)C(=O)N[C@@H](CCC(=O)O)C(=O)NCC(=O)NCC(=O)N[C@@H](CCCCNC(=O)COCCOCCNC(=O)COCCOCCNC(=O)CC[C@H](NC(=O)CCCCCCCCCCCCC(=O)O)C(=O)O)C(=O)N[C@@H](CO)C(=O)N[C@@H](CO)C(=O)NCC(=O)N[C@@H](C)C(=O)N1CCC[C@H]1C(=O)N1CCC[C@H]1C(=O)N1CCC[C@H]1C(=O)N[C@@H](CO)C(N)=O [Example 202]	> 9950 nM	> 9950 nM	75.3%	86%	–	109%	92.2%	–	–
CC[C@H](C)[C@H](NC(=O)[C@H](CCCN)NC(=O)[C@H](CC(=O)O)NC(=O)[C@H](CC(C)C)NC(=O)[C@](C)(CC(C)C)NC(=O)[C@@H](NC(=O)[C@H](CO)NC(=O)[C@H](Cc1ccncc1)NC(=O)[C@H](CC(=O)O)NC(=O)[C@H](CO)NC(=O)[C@@H](NC(=O)[C@](C)(Cc1ccccc1F)NC(=O)[C@@H](NC(=O)CNC(=O)[C@H](CCC(=O)O)NC(=O)C(C)(C)NC(=O)[C@@H](N)Cc1ccc(O)cc1)[C@@H](C)O)[C@@H](C)O)[C@@H](C)CC)C(=O)N[C@@H](C)C(=O)N[C@@H](CCC(N)=O)C(=O)NC(C)(C)C(=O)N[C@@H](CCC(=O)O)C(=O)N[C@@H](Cc1ccccc1)C(=O)N[C@H](C(=O)N[C@@H](CCCCNC(=O)COCCOCCNC(=O)COCCOCCNC(=O)CC[C@H](NC(=O)CCCc1ccc(C(C)(C)C)cc1)C(=O)O)C(=O)N[C@@](C)(Cc1ccc(O)cc1)C(=O)N[C@@H](CC(C)C)C(=O)N[C@H](C(=O)N[C@@H](CCCCNC(=O)COCCOCCNC(=O)COCCOCCNC(=O)CC[C@H](NC(=O)CCCc1ccc(C(C)(C)C)cc1)C(=O)O)C(=O)NCC(=O)NCC(=O)N1CCC[C@H]1C(=O)N[C@@H](CO)C(=O)N[C@@H](CO)C(=O)NCC(=O)N[C@@H](C)C(=O)N1CCC[C@H]1C(=O)N1CCC[C@H]1C(=O)N1CCC[C@H]1C(=O)N[C@@H](CO)C(N)=O)[C@@H](C)CC)[C@@H](C)CC [Example 203]	> 9950 nM	> 9950 nM	87.2%	–	3.38 nM	105%	119%	0.535 nM	–
CC[C@H](C)[C@H](NC(=O)[C@H](CCCN)NC(=O)[C@H](CC(=O)O)NC(=O)[C@H](CC(C)C)NC(=O)[C@](C)(CC(C)C)NC(=O)[C@@H](NC(=O)[C@H](CO)NC(=O)[C@H](Cc1ccncc1)NC(=O)[C@H](CC(=O)O)NC(=O)[C@H](CO)NC(=O)[C@@H](NC(=O)[C@](C)(Cc1ccccc1F)NC(=O)[C@@H](NC(=O)CNC(=O)[C@H](CCC(=O)O)NC(=O)C(C)(C)NC(=O)[C@@H](N)Cc1ccc(O)cc1)[C@@H](C)O)[C@@H](C)O)[C@@H](C)CC)C(=O)N[C@@H](C)C(=O)N[C@@H](CCC(N)=O)C(=O)NC(C)(C)C(=O)N[C@@H](CCCCNC(=O)COCCOCCNC(=O)COCCOCCNC(=O)CC[C@H](NC(=O)CCCc1ccc(C(C)(C)C)cc1)C(=O)O)C(=O)N[C@@H](Cc1ccccc1)C(=O)N[C@H](C(=O)N[C@H](CCC(=O)O)C(=O)N[C@@](C)(Cc1ccc(O)cc1)C(=O)N[C@@H](CC(C)C)C(=O)N[C@H](C(=O)N[C@@H](CCCCNC(=O)COCCOCCNC(=O)COCCOCCNC(=O)CC[C@H](NC(=O)CCCc1ccc(C(C)(C)C)cc1)C(=O)O)C(=O)NCC(=O)NCC(=O)N1CCC[C@H]1C(=O)N[C@@H](CO)C(=O)N[C@@H](CO)C(=O)NCC(=O)N[C@@H](C)C(=O)N1CCC[C@H]1C(=O)N1CCC[C@H]1C(=O)N1CCC[C@H]1C(=O)N[C@@H](CO)C(N)=O)[C@@H](C)CC)[C@@H](C)CC [Example 204]	> 9950 nM	> 9950 nM	83.3%	–	2.44 nM	–	126%	–	0.341 nM
